Nine molecules from patent publication US20090227647A1, “Compounds, Compositions and Methods for the Treatment of Islet Amyloid Polypeptide (IAPP) Accumulation in Diabetes” (priority 2008, published 2009) can be followed below.

SMILES strings stand for the structures.

Test [1] has as its target T1, pre-fibrillized Amylin/IAPP fibrils (Homo sapiens, UniProt P10997).
T1 construct: purchased Bachem Inc
T1 sequence (P10997 34-70 limits assumed): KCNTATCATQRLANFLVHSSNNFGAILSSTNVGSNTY
As to the kind of experiment: Thioflavin T fluorometry, disruption/disassembly of pre-formed Amylin/IAPP fibrils. Format: biochemical. Conditions: for % Inhibition Amylin/IAPP (result ± S.D.), Thioflavin T fluorometry: 3-day incubation at 37° C.; for disruption/disassembly of preformed Amylin/IAPP fibrils (result in words), Thioflavin T fluorometry: all concentrations tested (wt/wt ratios 1:1 to 1:0.001). As to the method: The biological activity of the compounds provided herein as disruptors/inhibitors of IAPP amyloid protein fibrils, was assessed by determining the efficacy of the compounds to cause a disassembly/disruption of pre-formed IAPP amyloid fibrils. […] In this assay Thioflavin T binds specifically to fibrillar amyloid, and this binding produces a fluorescence enhancement at 485 nm that is directly proportional to the amount of fibrils present. The higher the fluorescence, the greater the amount of fibrils present (Naki et al, Lab. Invest. 65:104-110, 1991; Levine III, Protein Sci. 2:404-410, 1993; Amyloid: Int. J. Exp. Clin. Invest. 2:1-6, 1995).
In this assay Thioflavin T binds specifically to fibrillar amyloid, and this binding produces a fluorescence enhancement at 485 nm that is directly proportional to the amount of amyloid fibrils formed. The higher the fluorescence, the greater the amount of amyloid fibrils formed (Naki et al., Lab. Invest. 65:104-110, 1991; Levine III, Protein Sci. 2:404-410, 1993; Amyloid: Int. J. Exp. Clin. Invest. 2:1-6, 1995). The same premise is applied to Amylin/IAPP fibrils.
Following 3-days of co-incubation, 50 μl of each incubation mixture was transferred into a 96-well microtiter plate containing 150 μl of distilled water and 50 μl of a Thioflavin T solution (i.e. 500 mM Thioflavin T in 250 mM phosphate buffer, pH 6.8). The fluorescence was read at 485 nm (444 nm excitation wavelength) using an ELISA plate fluorometer after subtraction with buffer alone or compound alone, as blank.

Another test concerns the target T2, Amylin/IAPP fibrils (Homo sapiens, UniProt P10997).
T2 sequence (P10997 34-70 limits assumed): T1 sequence (P10997 34-70 limits assumed)
As to the kind of experiment: Congo red binding assay, Amylin/IAPP fibrils. The class given is biochemical. Conditions: 3-day incubation. The procedure:
In the Congo red binding assay the ability of a given test compound to alter amyloid binding to Congo red was quantified. In this assay, IAPP fibrils and test compounds were incubated for 3 days and then vacuum filtered through a 0.2 μm filter. The amount of IAPP fibrils retained in the filter was then quantitated following staining of the filter with Congo red. After appropriate washing of the filter, any lowering of the Congo red color on the filter in the presence of the test compound (compared to the Congo red staining of the amyloid protein in the absence of the test compound) was indicative of the test compound's ability to diminish/alter the amount of aggregated and congophilic IAPP fibrils.
In the Congo red binding assay the ability of a test compound to alter Amylin/IAPP binding to Congo red is quantified. In this assay, Amylin/IAPP and test compounds were incubated for 3 days and then vacuum filtered through a 0.2 μm filter. The amount of Amylin/IAPP retained in the filter was then quantitated following staining of the filter with Congo red. After appropriate washing of the filter, any lowering of the Congo red color retained on the filter in the presence of the test compound (compared to the Congo red staining of the Amylin/IAPP protein in the absence of the test compound) was indicative of the test compound's ability to diminish/alter the amount of aggregated and/or congophilic Amylin/IAPP.

Where [2] appears, read: Amylin/IAPP:test compound wt/wt ratio 1:0.001.
Where [3] appears, read: Amylin/IAPP:test compound wt/wt ratio 1:0.01.
Where [4] appears, read: Amylin/IAPP:test compound wt/wt ratio 1:0.1.
The mark [5] stands for this setting: Amylin/IAPP:test compound wt/wt ratio 1:1.

As for `O=C(Nc1ccc(O)c(O)c1)c1cccc(O)c1O` [Compound 1, 2,3 dihydroxybenzoic Acid 3,4 Dihydroxyanilide], the “% Inhibition Amylin/IAPP (result ± S.D.), Thioflavin T fluorometry” value in test [1] (setting [2]) was 14.3 ± 3.56%; in test [1] (setting [3]), 60.9±0.61%; in test [1] (setting [4]) it was 95.1±0.48%; in test [1] (setting [5]), 98.5 ± 0.26%. For the same molecule, in test [1], the “disruption/disassembly of preformed Amylin/IAPP fibrils (result in words), Thioflavin T fluorometry” value (“disruption/disassembly” below) is recorded as “most efficacious”. In addition, the “% Inhibition Amylin/IAPP (result ± S.D.), Congo red binding” value came out at 0.0 ± 6.44% on Amylin/IAPP fibrils (setting [2]), 7.8 ± 6.13% at Amylin/IAPP fibrils (setting [3]), 35.7 ± 5.12% at Amylin/IAPP fibrils (setting [4]) and 58.1 ± 6.67% on Amylin/IAPP fibrils (setting [5]).

`O=C(Nc1cccc(O)c1O)c1ccc(O)c(O)c1` [Compound 2, 3,4 dihydroxybenzoic Acid 2,3 Dihydroxyanilide]: the “% Inhibition Amylin/IAPP (result ± S.D.), Thioflavin T fluorometry” value in test [1] (setting [2]) was found to be 5.1 ± 4.57%; in test [1] (setting [3]), 52.9 ± 4.36%; in test [1] (setting [4]), 92.6 ± 0.84%; in test [1] (setting [5]), 99.4 ± 1.69%. The “% Inhibition Amylin/IAPP (result ± S.D.), Congo red binding” value at Amylin/IAPP fibrils (setting [2]) was found to be 5.3 ± 6.75%; on Amylin/IAPP fibrils (setting [3]), 5.2 ± 0.23%; at Amylin/IAPP fibrils (setting [4]), 33.5 ± 6.38%; at Amylin/IAPP fibrils (setting [5]), 45.8 ± 1.62%.

For `O=C(Nc1cccc(O)c1O)c1cccc(O)c1O` [Compound 3, 2,3 dihydroxybenzoic Acid 2,3 Dihydroxyanilide], the “% Inhibition Amylin/IAPP (result ± S.D.), Thioflavin T fluorometry” value in test [1] (setting [2]) is given as 5.0 ± 6.78%; in test [1] (setting [3]), 51.7±3.56%; in test [1] (setting [4]) it was 94.5±0.91%; in test [1] (setting [5]) it was 99.3 ± 0.6%. Moreover, in test [1], the “disruption/disassembly” value was “most efficacious”. The “% Inhibition Amylin/IAPP (result ± S.D.), Congo red binding” value on Amylin/IAPP fibrils (setting [2]) is 7.1 ± 4.14%; at Amylin/IAPP fibrils (setting [3]) it was 3.6 ± 1.16%; on Amylin/IAPP fibrils (setting [4]), 26.0 ± 5.79%; on Amylin/IAPP fibrils (setting [5]) it was 60.1 ± 3.78%.

Take `CN(C(=O)c1ccc(O)c(O)c1)c1ccc(O)c(O)c1` [Compound 4, 3,4 Dihydroxybenzoic Acid 3,4 Dihydroxy N-methyl Anilide]: the “% Inhibition Amylin/IAPP (result ± S.D.), Thioflavin T fluorometry” value in test [1] (setting [2]) is 9.8 ± 7.47%; in test [1] (setting [3]), 57.4±1.61%; in test [1] (setting [4]), 95.4±0.23%; in test [1] (setting [5]) it was 100.0 ± 0.09%. In test [1], the “disruption/disassembly” value is reported as “most efficacious”. In addition, the “% Inhibition Amylin/IAPP (result ± S.D.), Congo red binding” value turned out to be 0.0 ± 7.35% at Amylin/IAPP fibrils (setting [2]), 8.0 ± 4.62% on Amylin/IAPP fibrils (setting [3]), 46.0±7.43% at Amylin/IAPP fibrils (setting [4]) and 70.8±1.55% at Amylin/IAPP fibrils (setting [5]).

Take `O=S(=O)(Nc1ccc(O)c(O)c1)c1ccc(O)c(O)c1` [Compound 5, 3,4 Dihydroxybenzenesulfonic acid 3,4 Dihydroxysulfonamide]: the “% Inhibition Amylin/IAPP (result ± S.D.), Thioflavin T fluorometry” value in test [1] (setting [2]) was 14.1 ± 1.62%; in test [1] (setting [3]) it was 56.7±0.4%; in test [1] (setting [4]), 93.7±1.13%; in test [1] (setting [5]) it was 99.7 ± 0.38%. Further, the “disruption/disassembly” value in test [1] is “most efficacious”. Besides, the “% Inhibition Amylin/IAPP (result ± S.D.), Congo red binding” value was 3.5 ± 2.40% on Amylin/IAPP fibrils (setting [2]), 8.3 ± 6.91% at Amylin/IAPP fibrils (setting [3]), 43.4 ± 3.39% on Amylin/IAPP fibrils (setting [4]) and 54.6 ± 14.22% on Amylin/IAPP fibrils (setting [5]).

Turning to `Oc1ccc(-c2cnc(-c3ccc(O)c(O)c3)[nH]2)cc1O` [Compound 6, 2,4 bis(3,4 dihydroxyphenyl) Imidazole], the “% Inhibition Amylin/IAPP (result ± S.D.), Thioflavin T fluorometry” value in test [1] (setting [2]) turned out to be 17.2 ± 4.22%; in test [1] (setting [3]), 68.9±3.33%; in test [1] (setting [4]), 96.3±0.76%; in test [1] (setting [5]) it was 100.0 ± 0.26%. In addition, the “disruption/disassembly” value in test [1] is recorded as “most efficacious”. The “% Inhibition Amylin/IAPP (result ± S.D.), Congo red binding” value turned out to be 5.2 ± 2.31% on Amylin/IAPP fibrils (setting [2]), 1.0 ± 4.82% at Amylin/IAPP fibrils (setting [3]), 36.4 ± 12.77% at Amylin/IAPP fibrils (setting [4]) and 80.7 ± 0.75% at Amylin/IAPP fibrils (setting [5]).

On to `Oc1ccc(-c2nnc(-c3ccc(O)c(O)c3)[nH]2)cc1O` [Compound 7, 3,5 bis(3,4 Dihydroxyphenyl) 1,2,4 Triazole], for which the “% Inhibition Amylin/IAPP (result ± S.D.), Thioflavin T fluorometry” value was determined as 4.6 ± 4.34% in test [1] (setting [2]), 41.4 ± 2.13% in test [1] (setting [3]), 89.7 ± 0.54% in test [1] (setting [4]) and 99.8 ± 0.31% in test [1] (setting [5]). In addition, the “% Inhibition Amylin/IAPP (result ± S.D.), Congo red binding” value at Amylin/IAPP fibrils (setting [2]) stood at 9.1 ± 1.29%; at Amylin/IAPP fibrils (setting [4]) it was 44.1 ± 5.62%; on Amylin/IAPP fibrils (setting [5]), 66.2±7.81%.

For the molecule `Oc1ccc(-c2cc(-c3ccc(O)c(O)c3)[nH]n2)cc1O` [Compound 8, 3,5 bis(3,4 Dihydroxyphenyl)Pyrazole], the “% Inhibition Amylin/IAPP (result ± S.D.), Thioflavin T fluorometry” value is listed as 8.1 ± 1.54% in test [1] (setting [2]), 48.4 ± 0.31% in test [1] (setting [3]), 91.2 ± 0.76% in test [1] (setting [4]) and 99.0 ± 1.05% in test [1] (setting [5]). In addition, the “% Inhibition Amylin/IAPP (result ± S.D.), Congo red binding” value at Amylin/IAPP fibrils (setting [2]) was determined as 1.7 ± 1.98%; at Amylin/IAPP fibrils (setting [3]) it was 20.2 ± 7.11%; at Amylin/IAPP fibrils (setting [4]) it was 39.7 ± 7.20%; at Amylin/IAPP fibrils (setting [5]) it was 74.9 ± 1.26%.

For `Oc1ccc(C23CC4CC(C2)CC(c2ccc(O)c(O)c2)(C4)C3)cc1O` [Compound 9, 1,3 bis(3,4 dihydroxyphenyl) Adamantane], the “% Inhibition Amylin/IAPP (result ± S.D.), Thioflavin T fluorometry” value in test [1] (setting [2]) is given as 4.3 ± 2.29%; in test [1] (setting [3]) it was 36.6 ± 3.55%; in test [1] (setting [4]), 88.5 ± 0.31%; in test [1] (setting [5]), 97.6 ± 0.31%. For the same molecule, the “% Inhibition Amylin/IAPP (result ± S.D.), Congo red binding” value was found to be 16.5 ± 9.88% on Amylin/IAPP fibrils (setting [2]), 12.0 ± 8.03% at Amylin/IAPP fibrils (setting [3]), 41.2 ± 5.64% on Amylin/IAPP fibrils (setting [4]) and 88.6 ± 2.08% on Amylin/IAPP fibrils (setting [5]).
